Reference: patent publication US11254668B2, “Pyrazolo[1,5-A]pyrazin-4-yl and related derivatives” (Pfizer Inc., priority 2017, dated 2022)
Read-outs that look alike come from different tables or passages of the source.

Columns and labels:
[1] = molecular target: JAK2 (Homo sapiens (Human), UniProt O60674); experiment: JAK Caliper Enzyme Assay at 1 mM ATP, JAK2; format: biochemical
How it was run: (§1)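 Recombinant human kinase domains phosphorylate a fluorescent synthetic peptide at 1 mM ATP and room temperature, with enzyme level and time tuned to 20–30% conversion before an EDTA stop. Microfluidic mobility-shift separation gives percent product from peak heights. Percent effect against plate controls (DMSO baseline) is plotted versus compound concentration.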

[2] = molecular target: JAK1 (Homo sapiens (Human), UniProt P23458); experiment: JAK Caliper Enzyme Assay at 1 mM ATP, JAK1; format: biochemical
How it was run: (§2)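 Recombinant human kinase domains phosphorylated a fluorescent synthetic peptide at room temperature, with enzyme level and time tuned to 20% to 30% conversion; EDTA stop buffer ended reactions. Mobility-shift separation gave percent product from peak heights, normalised to DMSO and positive controls, and IC50s came from concentration–effect curves.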

[3] = tested on: IL-12 signaling (TYK2 and JAK2), STAT4 phosphorylation; experiment: Human Whole Blood IL-12 Induced STAT4 Phosphorylation Assay; format: cell-based; conditions: IL-12 5 ng/mL, pSTAT4 in lymphocytes by flow cytometry
Protocol: Selected compounds were assessed for their ability to inhibit IL-12 signaling in a human whole blood flow cytometry assay. IL-12 signals through TYK2 and JAK2.
Human Whole Blood IL-12 Induced STAT4 Phosphorylation Assay
Test articles were prepared as 30 mM stocks in DMSO. An 11-point 2.5 dilution series was created in DMSO with a top concentration of 10 mM. Further dilution was done by adding 4 μL of the above test article solutions into 96 μL of PBS with a top concentration of 400 μM. Human whole blood was collected from healthy donors via vein puncture into Vacutainer collection tubes containing sodium heparin (Catalog No. 366480; Becton Dickinson, Franklin Lakes, N.J.). Blood was warmed to 37° C. prior to use. Human whole blood was aliquoted ([…]) in 96-well, deep-well, V-bottom plates and treated with compounds at 11 different concentrations (0.2% DMSO final) at 37° C. for 60 minutes. This was followed by a challenge with IL-12 ([…]; final, 5 ng/mL) for 15 minutes. Samples were treated with warm 1× Lyse/Fix buffer ([…]) to terminate activation and further incubated at 37° C. for 20 minutes to lyse red blood cells. Plates were centrifuged at 300×g for 5 minutes, supernatant was aspirated, and cells were washed with […] of staining buffer (PBS containing 0.5% fetal bovine serum and 0.01% sodium azide). The washed cell pellets were resuspended with […] of pre-chilled 90% methanol, and incubated at 4° C. for 30 minutes. Plates were centrifuged at 300×g for 5 minutes, supernatant containing 90% methanol was aspirated, and cells were washed with […] of staining buffer. Cell pellets were resuspended in staining buffer containing anti-pSTAT4-AlexaFluor647 (1 to 150 dilution, […]), and incubated at room temperature in the dark overnight.
Samples were transferred to 96-well U-bottom plates and flow cytometric analysis was performed on a FACSCalibur or LSRFortessa equipped with a HTS plate loader (BD Biosciences). The lymphocyte population was gated for histogram analysis of pSTAT4. Background fluorescence was defined using unstimulated cells and a gate was placed at the foot of the peak to include ˜0.5% gated population. The histogram statistical analysis was performed using CellQuestÔ Pro version 5.2.1 (BD Biosciences) or FACSDiva version 6.2 (BD Biosciences) software. Relative fluorescence unit (RFU), which measures the level of phospho STAT4, was calculated by multiplying the percent positive population and its mean fluorescence. Data from 11 compound concentrations (singlicate at each concentration) was normalized as a percentage of control based on the formula: % of Control=100'(A−B)/(C−B) where A is the RFU from wells containing compound and IL-12, B is the RFU from wells without IL-12 and compound (minimum fluorescence) and C is the RFU from wells containing only IL-12 (maximum fluorescence). Inhibition curves and IC50 values were determined using the Prism version 5 software (GraphPad, La Jolla, Calif.).

[4] = molecular target: TYK2 (Homo sapiens (Human), UniProt P29597); experiment: JAK Caliper Enzyme Assay at 1 mM ATP, TYK2; format: biochemical
How it was run: as §1

[5] = molecular target: JAK3 (Homo sapiens (Human), UniProt P52333); experiment: JAK Caliper Enzyme Assay at 1 mM ATP, JAK3; format: biochemical
How it was run: as §2

Sequence of JAK2 (O60674 849-1124): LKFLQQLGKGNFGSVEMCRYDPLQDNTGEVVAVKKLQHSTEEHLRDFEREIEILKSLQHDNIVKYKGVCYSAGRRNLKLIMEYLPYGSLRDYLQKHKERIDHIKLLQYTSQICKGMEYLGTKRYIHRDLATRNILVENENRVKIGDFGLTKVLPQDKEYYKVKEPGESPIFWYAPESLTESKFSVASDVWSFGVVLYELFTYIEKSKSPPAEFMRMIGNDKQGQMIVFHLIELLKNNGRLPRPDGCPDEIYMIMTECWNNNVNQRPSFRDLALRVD
Sequence of TYK2 (P29597 897-1176): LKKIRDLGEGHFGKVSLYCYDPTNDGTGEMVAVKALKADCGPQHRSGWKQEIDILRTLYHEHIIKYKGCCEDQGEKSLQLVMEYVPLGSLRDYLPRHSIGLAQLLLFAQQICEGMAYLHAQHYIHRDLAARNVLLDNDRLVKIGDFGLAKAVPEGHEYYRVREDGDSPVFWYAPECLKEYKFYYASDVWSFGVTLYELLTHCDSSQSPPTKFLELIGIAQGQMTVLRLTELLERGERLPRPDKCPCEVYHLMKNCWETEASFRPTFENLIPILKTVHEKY
Sequence of JAK1 (P23458 875-1153): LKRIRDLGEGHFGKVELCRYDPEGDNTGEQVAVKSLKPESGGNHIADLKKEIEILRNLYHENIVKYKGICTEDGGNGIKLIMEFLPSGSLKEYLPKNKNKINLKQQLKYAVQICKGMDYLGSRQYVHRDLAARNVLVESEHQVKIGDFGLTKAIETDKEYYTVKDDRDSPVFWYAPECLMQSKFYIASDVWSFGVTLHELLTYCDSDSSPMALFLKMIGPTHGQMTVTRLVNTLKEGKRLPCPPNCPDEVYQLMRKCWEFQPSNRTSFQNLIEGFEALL
Sequence of JAK3 (P52333 822-1111): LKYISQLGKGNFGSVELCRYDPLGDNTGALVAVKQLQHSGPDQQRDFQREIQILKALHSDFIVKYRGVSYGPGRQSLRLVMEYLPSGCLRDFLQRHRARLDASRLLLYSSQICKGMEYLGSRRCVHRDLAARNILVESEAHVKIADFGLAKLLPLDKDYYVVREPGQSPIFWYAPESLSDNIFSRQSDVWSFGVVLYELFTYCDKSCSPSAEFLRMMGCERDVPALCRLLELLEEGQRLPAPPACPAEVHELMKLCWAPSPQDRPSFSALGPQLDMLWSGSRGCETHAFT

Compound | IC50 [1] | IC50 [2] | IC50 ([3]; Lymphocyte) | IC50 [4] | IC50 [5] | IC50 [3] | IC50 ([1]; JAK Caliper enzyme assay) | IC50 ([2]; JAK Caliper enzyme assay) | IC50 ([4]; JAK Caliper enzyme assay) | IC50 ([5]; JAK Caliper enzyme assay)
N#CCN1CC(CC#N)(n2ccc(-c3nc(-c4cnn(C5COC5)c4)cc4ncccc34)n2)C1 [Example 120, 2,2′-[3-(3-{7-[1-(oxetan-3-yl)-1H-pyrazol-4-yl]-1,6-naphthyridin-5-yl}-1H-pyrazol-1-yl)azetidine-1,3-diyl]diacetonitrile] | 28 nM | 521 nM | 44 nM | 15 nM | 8520 nM | – | – | – | – | –
N#CC[C@H]1C[C@@](CC#N)(n2ccc(-c3nc(-c4cn[nH]c4)cc4ncccc34)n2)C1 [Example 78, 2,2′-(cis-1-{3-[7-(1H-pyrazol-4-yl)-1,6-naphthyridin-5-yl]-1H-pyrazol-1-yl}cyclobutane-1,3-diyl)diacetonitrile] | 104 nM | 172 nM | – | 14 nM | 8610 nM | 76 nM | – | – | – | –
Cn1cc(-c2cc(-c3cnn([C@]4(CC#N)C[C@H](C#N)C4)c3)n3ccnc3c2)cn1 [Example 458, cis-3-(cyanomethyl)-3-{4-[7-(1-methyl-1H-pyrazol-4-yl)imidazo[1,2-a]pyridin-5-yl]-1H-pyrazol-1-yl}cyclobutanecarbonitrile] | – | – | – | – | – | 177 nM | 204 nM | 1680 nM | 25 nM | > 10000 nM
Cn1cc(-c2cc(-c3cnn(C4(CC#N)CN(S(C)(=O)=O)C4)n3)c3cccnc3c2)cn1 [Example 323, [3-{4-[7-(1-methyl-1H-pyrazol-4-yl)quinolin-5-yl]-2H-1,2,3-triazol-2-yl}-1-(methylsulfonyl)azetidin-3-yl]acetonitrile] | 244 nM | 2840 nM | – | 69 nM | > 10000 nM | – | – | – | – | –
N#CC[C@]1(n2ncc(-c3cc(-c4cn[nH]c4)cc4ncccc34)n2)C[C@H](C#N)C1 [Example 315, trans-3-(cyanomethyl)-3-{4-[7-(1H-pyrazol-4-yl)quinolin-5-yl]-2H-1,2,3-triazol-2-yl}cyclobutanecarbonitrile] | 215 nM | 524 nM | – | 19 nM | > 10000 nM | 123 nM | – | – | – | –
Cn1cc(-c2cc(-c3cnn(C4(CC#N)CC(C#N)C4)n3)c3cccnc3c2)cn1 (stereo not drawn) [Example 325, cis-3-(cyanomethyl)-3-{4-[7-(1-methyl-1H-pyrazol-4-yl)quinolin-5-yl]-2H-1,2,3-triazol-2-yl}cyclobutanecarbonitrile] | 32 nM | 319 nM | – | 11 nM | 2150 nM | – | – | – | – | –
Cn1ncc(-c2cc3ncccc3c(-c3ccn(C4(CC#N)CN(CC(F)(F)F)C4)n3)n2)n1 [Example 154, [3-{3-[7-(2-methyl-2H-1,2,3-triazol-4-yl)-1,6-naphthyridin-5-yl]-1H-pyrazol-1-yl}-1-(2,2,2-trifluoroethyl)azetidin-3-yl]acetonitrile] | 3180 nM | > 10000 nM | – | 287 nM | > 10000 nM | – | – | – | – | –
N#CC[C@]1(n2ncc(-c3cc(-c4ccc(N)cn4)cc4ncccc34)n2)C[C@@H](C#N)C1 [Example 359, cis-3-{4-[7-(5-aminopyridin-2-yl)quinolin-5-yl]-2H-1,2,3-triazol-2-yl}-3-(cyanomethyl)cyclobutanecarbonitrile] | 69 nM | 321 nM | – | 13 nM | 6700 nM | – | – | – | – | –

Next, values leading:

IC50 [1] | IC50 [2] | IC50 ([3]; Lymphocyte) | IC50 [4] | IC50 [5] | IC50 [3] | IC50 ([1]; JAK Caliper enzyme assay) | IC50 ([2]; JAK Caliper enzyme assay) | IC50 ([4]; JAK Caliper enzyme assay) | IC50 ([5]; JAK Caliper enzyme assay) | Compound
21 nM | 14 nM | – | 8 nM | 1240 nM | 76 nM | – | – | – | – | N#CC[C@]1(n2ccc(-c3nc(-c4cc(N)[nH]n4)cc4ncccc34)n2)C[C@H](C#N)C1 [Example 41, trans-3-{3-[7-(5-amino-1H-pyrazol-3-yl)-1,6-naphthyridin-5-yl]-1H-pyrazol-1-yl}-3-(cyanomethyl)cyclobutanecarbonitrile]
13 nM | 55 nM | – | 7 nM | 873 nM | 40 nM | – | – | – | – | Cn1cc(-c2cc3ncccc3c(-c3ccn([C@]4(CC#N)C[C@H](C#N)C4)n3)n2)cn1 [Example 103, cis-3-(cyanomethyl)-3-{3-[7-(1-methyl-1H-pyrazol-4-yl)-1,6-naphthyridin-5-yl]-1H-pyrazol-1-yl}cyclobutanecarbonitrile]
1620 nM | 9340 nM | – | 189 nM | > 10000 nM | – | – | – | – | – | Cc1ncc(-c2cc3ncccc3c(-c3ccn(C4(CC#N)CN(S(C)(=O)=O)C4)n3)n2)cc1N [Example 217, [3-{3-[7-(5-amino-6-methylpyridin-3-yl)-1,6-naphthyridin-5-yl]-1H-pyrazol-1-yl}-1-(methylsulfonyl)azetidin-3-yl]acetonitrile]
725 nM | 8340 nM | – | 84 nM | > 10000 nM | – | – | – | – | – | COc1cc(-c2cc3ncccc3c(-c3ccn(C4(CC#N)CN(S(C)(=O)=O)C4)n3)n2)ccn1 [Example 189]
> 10000 nM | > 10000 nM | – | 3170 nM | > 10000 nM | – | – | – | – | – | CS(=O)(=O)N1CC(CC#N)(n2ccc(-c3nc(-c4ccccc4CO)cc4ncccc34)n2)C1 [Example 255, [3-(3-{7-[2-(hydroxymethyl)phenyl]-1,6-naphthyridin-5-yl}-1H-pyrazol-1-yl)-1-(methylsulfonyl)azetidin-3-yl]acetonitrile]
174 nM | 1350 nM | – | 39 nM | 8090 nM | – | – | – | – | – | CCS(=O)(=O)N1CC(CC#N)(n2ccc(-c3nc(-c4cnn(C)c4)cc4ncccc34)n2)C1 [Example 105, [1-(ethylsulfonyl)-3-{3-[7-(1-methyl-1H-pyrazol-4-yl)-1,6-naphthyridin-5-yl]-1H-pyrazol-1-yl}azetidin-3-yl]acetonitrile]
